Where “and” joins values, the source holds several entries; their conditions need not be identical. Identical values can stand only once. Like-named read-outs stand apart in the source and are kept apart here.
What was measured:
[1] = High-dose PK, single PO 300 mg/kg via oral gavage; format: in vivo; conditions: single 300 mg/kg oral gavage; for Individual whole blood concentration: animals 4-1 to 4-3
Method: On the morning of day 7, the water group received a single PO administration of 300 mg/kg C16 (10 mL/kg) for high-dose PK evaluation, using a 30 mg/mL solution of C16 in 10% Solutol HS-15 / 90% PEG 600 (prepared as described above). To that extent, blood was collected via the tail vein at the 30 and 60 min time point, and via cardiac exsanguination after 180 min (protocol as for other cohorts). Samples for hematological and biochemical analysis were also prepared. Afterward, animals were sacrificed by cervical dislocation.
Blood samples (25 μL) were collected via the tail vein or cardiac puncture (last time point). Blood was pipetted into a tube with 25 μL heparinized water (1 μL of sodium heparin (1000 units/mL) + 24 μL water) within 30 seconds of collection. The sample was pipetted up and down five times, immediately frozen on dry ice, and stored at -60°C to -80°C until analysis.
E.C. Whole blood C16 levels […]
BLOQ: below the limit of quantitation (0.5 ng/mL). Samples that were below the limit of quantification were not used in the calculation of
Table BB. […]

Plasma stability = format: in vitro ADME; conditions: plasma (rat, Sprague-Dawley)
Excerpt: (§1) Table 3 In vitro physicochemical, stability and metabolism data. | column: Value

[2] = Stability test of C16 in 10% Solutol HS-15 / 90% PEG 600; format: physicochemical
Method: Solutions of 30 mg/mL and 10 mg/mL of C16 were prepared and stored at room temperature and 4°C for 24 h. The stability of C16 was evaluated at 0, 1, 2, 4, 8 and 24 h after formulation by high-performance liquid chromatography-mass spectrometry/mass spectrometry (HPLC-MS/MS) (electrospray ionization, ESI+) analysis using oxybutynin as an internal standard (IS). Analyte samples were diluted 500x with acetonitrile (ACN)/H2O (20:80). This solution was further diluted 100x with an oxybutynin solution (1 ng/μL in ACN/H2O 20:80), giving a final concentration of 0.6 ng/μL and 0.2 ng/μL, respectively, for HPLC-MS/MS analysis (multiple reaction monitoring scan mode, MRM, see Section A of S1 File for more details). All analyses were performed in triplicates.
A.A. Vehicles for single-dose studies a. Stability test of C16 in 10% Solutol HS -15 / 90% PEG 600
Quantification was performed by calculating the ratio of the peak area (counts) of C16 and the IS. Results are expressed as relative differences to the peak ratio at 0 h (%RE, Table A).
Table A. Stability in 10% Solutol HS -15 / 90% PEG 600: peak ratios.
10mg/mL at room temperature
30mg/mL at room temperature
CV: Coefficient of variation; RE: Difference in peak area relative to indicated time point. […]

Whole blood stability = format: in vitro ADME, rat; conditions: for half-life at 1 μM: male, Sprague-Dawley, rat
Method: C16 (1 μM) or vehicle (DMSO) were incubated with fresh rat blood (Sprague Dawley, male) at 37°C at 5 time points in duplicate over a 120-min period. The final DMSO concentration in the incubation was 0.25%. Reactions were terminated following 0, 15, 30, 60 and 120 min by acetonitrile containing internal standard. The sampling plate was centrifuged (3000 rpm, 45 min, 4 °C) and the supernatants from each time point analyzed for parent compound by HPLC-MS/MS. The percentage of parent compound remaining at each time point relative to the 0-min sample was then calculated from HPLC-MS/MS peak area ratios (compound peak area/internal standard peak area).
C. Stability and metabolism
For details on ADME experiments not included underneath , please consult ref. [1].
C.A. Whole blood stability
Column: Kinetex XB-C18 column, 2.6 µm (150 x2.1 mm)
Mobile phase A: H2O + 0.1% v/v Formic Acid
Mobile phase B: MeCN + 0.1% v/v Formic Acid
Autosampler syringe volume: 100 µL
Weak wash: MeOH:H2O 1:9 v/v
Strong wash: MeOH:H2O 95:5 v/v
Table K. Gradient program.
Mass spectrometric conditions
Model: AB Sciex API5500 QTrap
Mode: Multiple ion monitoring (MIM)
Table L. MIM (parent to parent transitions).
The areas and percentages for the parent and metabolites have been calculated using MIM data where parent to parent transitions have been used, and assume that each metabolite has the same point of ionisation and the sensitivity of the metabolite has not been affected by the biotransformation.

[3] = Half-life in PBS, simulated gastric fluid and simulated intestinal fluid; format: physicochemical; conditions: 1 μM
Excerpt: as §1

MCF-7/6 = experiment: Chick heart invasion assay (3D confrontation culture); format: cell-based; conditions: Homo sapiens, MCF7/6; read-out: projected C16 EC50 value
Excerpt: Our laboratories have been characterizing and validating 4-fluoro-3’,4’,5’-trimethoxychalcone or C16 as a novel invasion inhibitor for the study and potential treatment of metastatic cancer (Fig 1). C16 has nanomolar anti-invasive potency in the chick heart and Matrigel in vitro invasion models against several human cancer cell lines (MCF-7/6 breast cancer, BLM melanoma and SK-OV-3 ovarian carcinoma). […] Given its discovery in a phenotypic model, the biological target of C16 is unknown. We have differentiated the molecular mechanism of action of C16 from that of other antimetastatic agents, and are currently characterizing its biochemical interactions in detail.
Fig 1 Structure and biological activity of C16.

CYP 3A4 = CYP 3A4 (Homo sapiens, UniProt P08684); experiment: CYP inhibition 3A4 (BFC substrate); format: in vitro ADME; conditions: 10 μM
Sequence of CYP 3A4 (P08684 whole entry): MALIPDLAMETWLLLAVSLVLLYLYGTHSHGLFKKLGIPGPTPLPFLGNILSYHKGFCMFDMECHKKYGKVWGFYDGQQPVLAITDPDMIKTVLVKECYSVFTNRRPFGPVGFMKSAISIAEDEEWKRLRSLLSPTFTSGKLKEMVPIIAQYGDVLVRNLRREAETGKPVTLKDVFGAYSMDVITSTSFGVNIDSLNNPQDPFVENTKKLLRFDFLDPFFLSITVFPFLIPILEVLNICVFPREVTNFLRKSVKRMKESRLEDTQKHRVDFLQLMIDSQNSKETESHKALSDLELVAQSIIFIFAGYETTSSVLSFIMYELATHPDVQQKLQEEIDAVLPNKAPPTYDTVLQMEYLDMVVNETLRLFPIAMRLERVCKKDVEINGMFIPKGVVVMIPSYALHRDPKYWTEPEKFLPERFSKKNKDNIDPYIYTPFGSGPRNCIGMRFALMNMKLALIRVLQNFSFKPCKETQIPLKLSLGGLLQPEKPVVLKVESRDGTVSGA
Excerpt: as §1

Blood partitioning = format: in vitro ADME; conditions: rat, Sprague-Dawley, authors call the ratio not accurate

SMILES: COc1cc(C(=O)/C=C/c2ccc(F)cc2)cc(OC)c1OC [C16, 4-fluoro-3’,4’,5’-trimethoxychalcone]
- concentration at 0.5 h ([1]; male, CD-1, mouse, whole blood, po, 0.5 h, Average±SD): 32.3 ± 24.2 ng/mL
- concentration at 1 h ([1]; male, CD-1, mouse, whole blood, po, 1 h, Average±SD): 28.3 ± 12.1 ng/mL
- concentration at 3 h ([1]; male, CD-1, mouse, whole blood, po, 3 h, Average±SD, read-out: Whole blood concentration): 15.1 ± 2.9 ng/mL
- Individual whole blood concentration ([1]; mouse, 0.5 h): 19.3 ng/mL and 60.2 ng/mL and 17.5 ng/mL
- Individual whole blood concentration ([1]; mouse, 1 h): 28.5 ng/mL and 40.3 ng/mL and 16.2 ng/mL
- Individual whole blood concentration ([1]; mouse, 3 h): 13.9 ng/mL and 13.1 ng/mL
- concentration at 3 h ([1]; mouse, whole blood, po, 3 h, animals 4-1 to 4-3, read-out: Individual whole blood concentration): 18.4 ng/mL
- half-life at 1 μM (Plasma stability): > 120 min
- %RE to 0 h (peak ratio C16/IS) ([2]; 10mg/mL at 4 °C, 1 h): 1.2%
- %RE to 0 h (peak ratio C16/IS) ([2]; 10mg/mL at 4 °C, 2 h): -2.9%
- %RE to 0 h (peak ratio C16/IS) ([2]; 10mg/mL at 4 °C, 4 h): 1.4%
- %RE to 0 h (peak ratio C16/IS) ([2]; 10mg/mL at 4 °C, 8 h): -0.6%
- %RE to 0 h (peak ratio C16/IS) ([2]; 10mg/mL at 4 °C, 24 h): -1.4%
- %RE to 0 h (peak ratio C16/IS) ([2]; 10mg/mL at room temperature, 1 h): 1.8%
- %RE to 0 h (peak ratio C16/IS) ([2]; 10mg/mL at room temperature, 2 h): 1.8%
- %RE to 0 h (peak ratio C16/IS) ([2]; 10mg/mL at room temperature, 4 h): -1.0%
- %RE to 0 h (peak ratio C16/IS) ([2]; 10mg/mL at room temperature, 8 h): 1.4%
- %RE to 0 h (peak ratio C16/IS) ([2]; 10mg/mL at room temperature, 24 h): 2.9%
- %RE to 0 h (peak ratio C16/IS) ([2]; 30mg/mL at 4°C, 1 h): 4.8%
- %RE to 0 h (peak ratio C16/IS) ([2]; 30mg/mL at 4°C, 2 h): -6.1%
- %RE to 0 h (peak ratio C16/IS) ([2]; 30mg/mL at 4°C, 4 h): 3.5%
- %RE to 0 h (peak ratio C16/IS) ([2]; 30mg/mL at 4°C, 8 h): 5.0%
- %RE to 0 h (peak ratio C16/IS) ([2]; 30mg/mL at 4°C, 24 h): 1.6%
- %RE to 0 h (peak ratio C16/IS) ([2]; 30mg/mL at room temperature, 1 h): -0.6%
- %RE to 0 h (peak ratio C16/IS) ([2]; 30mg/mL at room temperature, 2 h): 0.2%
- %RE to 0 h (peak ratio C16/IS) ([2]; 30mg/mL at room temperature, 4 h): -3.1%
- %RE to 0 h (peak ratio C16/IS) ([2]; 30mg/mL at room temperature, 8 h): -5.4%
- %RE to 0 h (peak ratio C16/IS) ([2]; 30mg/mL at room temperature, 24 h): 0.3%
- Stability of solutions in 10% Solutol HS-15 / 90% PEG 600 ([2]; 10 and 30 mg/mL, room temperature (20–25 °C) and 4°C over 24 h): stable
- remaining at 15 min, 1 µM (Whole blood stability; fresh whole blood, male Sprague-Dawley rat blood, 15 min, read-out: Compound remaining (% of 0 min)): 16.5%
- remaining at 30 min, 1 µM (Whole blood stability; fresh whole blood, male Sprague-Dawley rat blood, 30 min, read-out: Compound remaining (% of 0 min)): 13.8%
- remaining at 60 min, 1 µM (Whole blood stability; fresh whole blood, male Sprague-Dawley rat blood, 60 min, read-out: Compound remaining (% of 0 min)): 10.6%
- remaining at 120 min, 1 µM (Whole blood stability; fresh whole blood, male Sprague-Dawley rat blood, 120 min, read-out: Compound remaining (% of 0 min)): 7%
- Intrinsic clearance (Whole blood stability; male Sprague-Dawley rat blood, Both Isomers integrated): 120 µL/min/mL blood
- half-life at 1 μM (Whole blood stability; fresh whole blood, blood (rat, Sprague-Dawley), 1 μM, read-out: Half-life): 6 min
- half-life at 1 μM (Whole blood stability; fresh whole blood, male Sprague-Dawley rat blood, Both Isomers integrated, read-out: t1/2): 5.76 min
- half-life at 1 μM (Whole blood stability; fresh whole blood, male Sprague-Dawley rat blood, E-isomer only, read-out: t1/2): 8.06 min
- half-life ([3]; PBS, pH 7.4): >240 min
- half-life ([3]; simulated gastric fluid): >60 min
- half-life ([3]; simulated intestinal fluid): >240 min
- EC50 (MCF-7/6): 10 nM and 0.00632 µg/mL
- CYP inhibition 3A4 (BFC substrate) (CYP 3A4): 27 % inhibition of control
- blood plasma ratio at 1 μM (Blood partitioning): 9.2
